In the NIST ThermoML archive (doi:10.1016/j.jct.2010.10.016):

Experiment: xn = mol fraction of the nth substance listed
Conditions: 101 kPa, Liquid; for viscosity: Capillary tube (Ostwald / Ubbelohde) method; for mass density: Pycnometric method; for speed of sound: Resonance method

CCCCOCCO [2-butoxyethan-1-ol] + C[N+](=O)[O-]
Conditions	mass density [kg/m3]	speed of sound [m/s]	viscosity [mPa·s]
293.15 K, x2 = 0	901.19	1323.9	3.239
293.15 K, x2 = 0.05	905.83	–	–
293.15 K, x2 = 0.0507	–	1322.4	–
293.15 K, x2 = 0.0557	–	–	3.019
293.15 K, x2 = 0.0999	910.77	–	–
293.15 K, x2 = 0.1001	–	1321.8	–
293.15 K, x2 = 0.106	–	–	2.815
293.15 K, x2 = 0.1974	–	–	2.451
293.15 K, x2 = 0.2	921.75	–	–
293.15 K, x2 = 0.2003	–	1318.8	–
293.15 K, x2 = 0.3	934.29	–	–
293.15 K, x2 = 0.3003	–	1316.1	–
293.15 K, x2 = 0.3083	–	–	2.031
293.15 K, x2 = 0.4	948.84	–	–
293.15 K, x2 = 0.4005	–	1313.7	–
293.15 K, x2 = 0.4014	–	–	1.716
293.15 K, x2 = 0.4487	–	–	1.571
293.15 K, x2 = 0.4997	–	–	1.432
293.15 K, x2 = 0.5	966.21	–	–
293.15 K, x2 = 0.5002	–	1312	–
293.15 K, x2 = 0.5492	–	–	1.307
293.15 K, x2 = 0.5947	–	–	1.203
293.15 K, x2 = 0.6	987.24	1311.8	–
293.15 K, x2 = 0.699	–	–	0.996
293.15 K, x2 = 0.7	1013.09	1313.7	–
293.15 K, x2 = 0.7999	–	1318.2	–
293.15 K, x2 = 0.8002	1045.18	–	–
293.15 K, x2 = 0.8012	–	–	0.838
293.15 K, x2 = 0.8981	–	–	0.72
293.15 K, x2 = 0.8999	1085.39	1326.4	–
293.15 K, x2 = 0.9475	–	–	0.679
293.15 K, x2 = 0.95	–	1332.4	–
293.15 K, x2 = 0.9503	1109.89	–	–
298.15 K, x2 = 0	896.29	1306.8	–
298.15 K, x2 = 0.05	900.85	–	–
298.15 K, x2 = 0.0507	–	1305.6	–
298.15 K, x2 = 0.0999	905.68	–	–
298.15 K, x2 = 0.1001	–	1304.5	–
298.15 K, x2 = 0.2	916.48	–	–
298.15 K, x2 = 0.2003	–	1302.2	–
298.15 K, x2 = 0.3	928.9	–	–
298.15 K, x2 = 0.3003	–	1299.6	–
298.15 K, x2 = 0.4	943.34	–	–
298.15 K, x2 = 0.4005	–	1297.2	–
298.15 K, x2 = 0.5	960.53	–	–
298.15 K, x2 = 0.5002	–	1295.5	–
298.15 K, x2 = 0.6	981.35	1295.2	–
298.15 K, x2 = 0.7	1006.9	1296.8	–
298.15 K, x2 = 0.7999	–	1300.9	–
298.15 K, x2 = 0.8002	1038.68	–	–
298.15 K, x2 = 0.8999	1078.61	1308.5	–
298.15 K, x2 = 0.95	–	1313.8	–
298.15 K, x2 = 0.9503	1103.01	–	–
298.45 K, x2 = 0	–	–	2.825
298.45 K, x2 = 0.0506	–	–	2.654
298.45 K, x2 = 0.1012	–	–	2.483
298.45 K, x2 = 0.2015	–	–	2.165
298.45 K, x2 = 0.2997	–	–	1.873
298.45 K, x2 = 0.4047	–	–	1.581
298.45 K, x2 = 0.4498	–	–	1.464
298.45 K, x2 = 0.5008	–	–	1.339
298.45 K, x2 = 0.5481	–	–	1.234
298.45 K, x2 = 0.5976	–	–	1.131
298.45 K, x2 = 0.6984	–	–	0.943
298.45 K, x2 = 0.7981	–	–	0.8
298.45 K, x2 = 0.8986	–	–	0.689
298.45 K, x2 = 0.9394	–	–	0.655
303.15 K, x2 = 0	892.35	1290.6	2.449
303.15 K, x2 = 0.05	896.7	–	–
303.15 K, x2 = 0.0507	–	1289.5	–
303.15 K, x2 = 0.0522	–	–	2.307
303.15 K, x2 = 0.0999	901.4	–	–
303.15 K, x2 = 0.1001	–	1288.6	–
303.15 K, x2 = 0.1004	–	–	2.171
303.15 K, x2 = 0.2	911.94	–	–
303.15 K, x2 = 0.2003	–	1286.3	–
303.15 K, x2 = 0.2155	–	–	1.85
303.15 K, x2 = 0.299	–	–	1.635
303.15 K, x2 = 0.3	924.13	–	–
303.15 K, x2 = 0.3003	–	1283.6	–
303.15 K, x2 = 0.3996	–	–	1.399
303.15 K, x2 = 0.4	938.41	–	–
303.15 K, x2 = 0.4005	–	1281.1	–
303.15 K, x2 = 0.4495	–	–	1.292
303.15 K, x2 = 0.5	955.38	–	–
303.15 K, x2 = 0.5002	–	1279.2	1.191
303.15 K, x2 = 0.5482	–	–	1.102
303.15 K, x2 = 0.5993	–	–	1.01
303.15 K, x2 = 0.6	975.84	1278.5	–
303.15 K, x2 = 0.6998	–	–	0.858
303.15 K, x2 = 0.7	1000.85	1279.5	–
303.15 K, x2 = 0.7994	–	–	0.738
303.15 K, x2 = 0.7999	–	1282.9	–
303.15 K, x2 = 0.8002	1032.09	–	–
303.15 K, x2 = 0.8999	1071.54	1288.9	–
303.15 K, x2 = 0.9005	–	–	0.648
303.15 K, x2 = 0.9436	–	–	0.619
303.15 K, x2 = 0.95	–	1293.2	–
303.15 K, x2 = 0.9503	1095.83	–	–
308.15 K, x2 = 0	887.83	1273.5	2.079
308.15 K, x2 = 0.05	891.97	–	–
308.15 K, x2 = 0.0501	–	–	1.967
308.15 K, x2 = 0.0507	–	1273.1	–
308.15 K, x2 = 0.0999	896.44	–	–
308.15 K, x2 = 0.1001	–	1272.2	–
308.15 K, x2 = 0.1048	–	–	1.844
308.15 K, x2 = 0.198	–	–	1.639
308.15 K, x2 = 0.2	906.69	–	–
308.15 K, x2 = 0.2003	–	1270.2	–
308.15 K, x2 = 0.3	918.65	–	–
308.15 K, x2 = 0.3003	–	1267.9	–
308.15 K, x2 = 0.3012	–	–	1.427
308.15 K, x2 = 0.3999	–	–	1.243
308.15 K, x2 = 0.4	932.71	–	–
308.15 K, x2 = 0.4005	–	1265.9	–
308.15 K, x2 = 0.4502	–	–	1.154
308.15 K, x2 = 0.4998	–	–	1.071
308.15 K, x2 = 0.5	949.47	–	–
308.15 K, x2 = 0.5002	–	1264.2	–
308.15 K, x2 = 0.5499	–	–	0.991
308.15 K, x2 = 0.5998	–	–	0.917
308.15 K, x2 = 0.6	969.67	1263.4	–
308.15 K, x2 = 0.6994	–	–	0.786
308.15 K, x2 = 0.7	994.45	1264.3	–
308.15 K, x2 = 0.7997	–	–	0.685
308.15 K, x2 = 0.7999	–	1267.3	–
308.15 K, x2 = 0.8002	1025.45	–	–
308.15 K, x2 = 0.8986	–	–	0.616
308.15 K, x2 = 0.8999	1064.77	1273.2	–
308.15 K, x2 = 0.9465	–	–	0.59
308.15 K, x2 = 0.95	–	1276.9	–
308.15 K, x2 = 0.9503	1089.08	–	–
313.15 K, x2 = 0	883.59	1257.7	1.689
313.15 K, x2 = 0.05	887.43	–	–
313.15 K, x2 = 0.0507	–	1257.4	–
313.15 K, x2 = 0.0511	–	–	1.606
313.15 K, x2 = 0.0999	891.75	–	–
313.15 K, x2 = 0.1001	–	1256.8	–
313.15 K, x2 = 0.1135	–	–	1.493
313.15 K, x2 = 0.2	901.79	–	–
313.15 K, x2 = 0.2003	–	1254.9	–
313.15 K, x2 = 0.2156	–	–	1.314
313.15 K, x2 = 0.2993	–	–	1.18
313.15 K, x2 = 0.3	913.58	–	–
313.15 K, x2 = 0.3003	–	1252.7	–
313.15 K, x2 = 0.3971	–	–	1.042
313.15 K, x2 = 0.4	927.46	–	–
313.15 K, x2 = 0.4005	–	1250.6	–
313.15 K, x2 = 0.4497	–	–	0.974
313.15 K, x2 = 0.4973	–	–	0.915
313.15 K, x2 = 0.5	943.98	–	–
313.15 K, x2 = 0.5002	–	1248.8	–
313.15 K, x2 = 0.5458	–	–	0.858
313.15 K, x2 = 0.5989	–	–	0.798
313.15 K, x2 = 0.6	963.96	1248	–
313.15 K, x2 = 0.6958	–	–	0.698
313.15 K, x2 = 0.7	988.46	1248.7	–
313.15 K, x2 = 0.7999	–	1251.4	–
313.15 K, x2 = 0.8002	1018.86	–	–
313.15 K, x2 = 0.8004	–	–	0.617
313.15 K, x2 = 0.893	–	–	0.572
313.15 K, x2 = 0.8999	1057.69	1256.3	–
313.15 K, x2 = 0.9491	–	–	0.556
313.15 K, x2 = 0.95	–	1259.5	–
313.15 K, x2 = 0.9503	1081.78	–	–
